The source of these data is patent publication US8518934B2, “Oxycarbamoyl compounds and the use thereof” (Shonogi & Co., Ltd., priority 2008, dated 2013).

The experiment deals with T1, N-type calcium channel (NTCC) (Homo sapiens, UniProt Q00975).
T1 construct: endogenous in cells; host or cells: differentiated IMR32 cells (ATCC)
The experiment can be described thus: FLIPR calcium mobilization assay for N-type calcium channel. The experiment is classed as cell-based. Conditions: calcium mobilization in vitro assay; differentiated IMR32 cells, 90 mM KCl, 5 μM nitrendipine, Fluo-4. Here is the method: Cell maintenance and differentiation. Unless noted otherwise, cell culture reagents were purchased from Mediatech of Herndon, Md. IMR32 cells (American Type Culture Collection, ATCC, Manassas, Va.) were routinely cultured in growth medium consisting of minimum essential medium containing 10% fetal bovine serum (FBS, Hyclone, Logan, Utah), 100 U/mL penicillin, 100 μg/mL streptomycin, 2 mM L-glutamine, 1 mM sodium pyruvate, and 1×MEM non-essential amino acids. 80-90% confluent flasks of cells were differentiated using the following differentiation medium: Growth medium plus 1 mM dibutyryl cyclic AMP (Sigma, St. Louis, Mo.), and 2.5 μM bromodeoxyuridine (Sigma). Cells were differentiated for 8 days by replacing differentiation medium every 2-3 days. A7r5 (ATCC) cells were maintained and routinely cultured in A7r5 growth medium consisting of Dulbecco's Modified Eagles Medium containing 10% FBS, 100 U/mL penicillin, 100 μg/mL streptomycin, 4 mM L-glutamine, and 0.15% sodium bicarbonate. 80-90% confluent flasks of cells were differentiated using the following differentiation medium: A7r5 Growth Medium plus 1 mM dibutyryl cyclic AMP (Sigma). Cells were differentiated for 8 days by replacing differentiation medium every 2-3 days.
Recombinant human embryonal kidney cells (HEK293, ATCC) stably transfected with either N-type calcium channel (NTCC) subunits (α1b, α2δ, and β3) or L-type calcium channel (LTCC) subunits (α1c, α2δ, and β1) were routinely cultured in growth medium consisting of Dulbecco's Modified Eagles Medium containing 10% FBS, 100 U/mL penicillin, 100 μg/mL streptomycin, 4 mM L-glutamine, 500 μg/mL geneticin (G418), 20 μg/mL Blasticidin S (InVivogen, San Diego, Calif.) and 500 μg/mL zeocin (InVivogen). FLIPR Calcium Mobilization Assay for N-type Calcium Channel. One day prior to performing this assay, differentiated IMR32 cells were treated with lx CellStripper, and seeded on poly-D-lysine-coated 96-well clear-bottom black plates (Becton Dickinson, Franklin Lakes, N.J.) at 200,000 cells/well. On the day of the assay, the cell plates were washed with IMR32 buffer (127 mM NaCl, 1 mM KCl, 2 mM MgCl2, 700 μM NaH2PO4, 5 mM CaCl2, 5 mM NaHCO3, 8 mM HEPES, 10 mM glucose, pH 7.4), then pre-stimulated with KCl and loaded as follows: 0.05 mL of IMR32 buffer, 0.05 mL of each compound tested diluted in IMR32 buffer containing 20 μM nitrendipine (Sigma), and 0.1 mL KCl dissolved in IMR32 buffer, plus Fluo-4 were added (3 μM final concentration, Molecular Probes, Eugene, Oreg.). Final test compound concentrations ranged from about 846 pM to about 17 μM, final nitrendipine concentration was 5 μM, and final KCl concentration was 90 mM. After 1 hour, the cells were washed twice with 0.05 mL of each compound tested in nitrendipine-containing IMR32 buffer (no KCl or Fluo-4), and then replaced with 0.1 mL of each compound tested in nitrendipine-containing IMR32 buffer. Plates were then transferred to a Fluorimetric Imaging Plate Reader (FLIPR^96, Molecular Devices, Inc., Sunnyvale, Calif.) for assay. The FLIPR measured basal Fluo-4 fluorescence for 315 seconds (i.e., 5 minutes and 15 seconds), then added 0.1 mL KCl agonist dissolved in IMR32 buffer and measured fluorescence for another 45 seconds. Final test compound concentrations on the cells after FLIPR read ranged from about 846 pM to about 17 μM, final nitrendipine concentration was 5 μM, and final KCl concentration was 90 mM. Data were collected over the entire time course and analyzed using Excel, Graph Pad Prism (version 3.02, Graph Pad, San Diego, Calif.), or an in-house non-linear regression analysis software.

T1 sequence (Q00975 whole entry): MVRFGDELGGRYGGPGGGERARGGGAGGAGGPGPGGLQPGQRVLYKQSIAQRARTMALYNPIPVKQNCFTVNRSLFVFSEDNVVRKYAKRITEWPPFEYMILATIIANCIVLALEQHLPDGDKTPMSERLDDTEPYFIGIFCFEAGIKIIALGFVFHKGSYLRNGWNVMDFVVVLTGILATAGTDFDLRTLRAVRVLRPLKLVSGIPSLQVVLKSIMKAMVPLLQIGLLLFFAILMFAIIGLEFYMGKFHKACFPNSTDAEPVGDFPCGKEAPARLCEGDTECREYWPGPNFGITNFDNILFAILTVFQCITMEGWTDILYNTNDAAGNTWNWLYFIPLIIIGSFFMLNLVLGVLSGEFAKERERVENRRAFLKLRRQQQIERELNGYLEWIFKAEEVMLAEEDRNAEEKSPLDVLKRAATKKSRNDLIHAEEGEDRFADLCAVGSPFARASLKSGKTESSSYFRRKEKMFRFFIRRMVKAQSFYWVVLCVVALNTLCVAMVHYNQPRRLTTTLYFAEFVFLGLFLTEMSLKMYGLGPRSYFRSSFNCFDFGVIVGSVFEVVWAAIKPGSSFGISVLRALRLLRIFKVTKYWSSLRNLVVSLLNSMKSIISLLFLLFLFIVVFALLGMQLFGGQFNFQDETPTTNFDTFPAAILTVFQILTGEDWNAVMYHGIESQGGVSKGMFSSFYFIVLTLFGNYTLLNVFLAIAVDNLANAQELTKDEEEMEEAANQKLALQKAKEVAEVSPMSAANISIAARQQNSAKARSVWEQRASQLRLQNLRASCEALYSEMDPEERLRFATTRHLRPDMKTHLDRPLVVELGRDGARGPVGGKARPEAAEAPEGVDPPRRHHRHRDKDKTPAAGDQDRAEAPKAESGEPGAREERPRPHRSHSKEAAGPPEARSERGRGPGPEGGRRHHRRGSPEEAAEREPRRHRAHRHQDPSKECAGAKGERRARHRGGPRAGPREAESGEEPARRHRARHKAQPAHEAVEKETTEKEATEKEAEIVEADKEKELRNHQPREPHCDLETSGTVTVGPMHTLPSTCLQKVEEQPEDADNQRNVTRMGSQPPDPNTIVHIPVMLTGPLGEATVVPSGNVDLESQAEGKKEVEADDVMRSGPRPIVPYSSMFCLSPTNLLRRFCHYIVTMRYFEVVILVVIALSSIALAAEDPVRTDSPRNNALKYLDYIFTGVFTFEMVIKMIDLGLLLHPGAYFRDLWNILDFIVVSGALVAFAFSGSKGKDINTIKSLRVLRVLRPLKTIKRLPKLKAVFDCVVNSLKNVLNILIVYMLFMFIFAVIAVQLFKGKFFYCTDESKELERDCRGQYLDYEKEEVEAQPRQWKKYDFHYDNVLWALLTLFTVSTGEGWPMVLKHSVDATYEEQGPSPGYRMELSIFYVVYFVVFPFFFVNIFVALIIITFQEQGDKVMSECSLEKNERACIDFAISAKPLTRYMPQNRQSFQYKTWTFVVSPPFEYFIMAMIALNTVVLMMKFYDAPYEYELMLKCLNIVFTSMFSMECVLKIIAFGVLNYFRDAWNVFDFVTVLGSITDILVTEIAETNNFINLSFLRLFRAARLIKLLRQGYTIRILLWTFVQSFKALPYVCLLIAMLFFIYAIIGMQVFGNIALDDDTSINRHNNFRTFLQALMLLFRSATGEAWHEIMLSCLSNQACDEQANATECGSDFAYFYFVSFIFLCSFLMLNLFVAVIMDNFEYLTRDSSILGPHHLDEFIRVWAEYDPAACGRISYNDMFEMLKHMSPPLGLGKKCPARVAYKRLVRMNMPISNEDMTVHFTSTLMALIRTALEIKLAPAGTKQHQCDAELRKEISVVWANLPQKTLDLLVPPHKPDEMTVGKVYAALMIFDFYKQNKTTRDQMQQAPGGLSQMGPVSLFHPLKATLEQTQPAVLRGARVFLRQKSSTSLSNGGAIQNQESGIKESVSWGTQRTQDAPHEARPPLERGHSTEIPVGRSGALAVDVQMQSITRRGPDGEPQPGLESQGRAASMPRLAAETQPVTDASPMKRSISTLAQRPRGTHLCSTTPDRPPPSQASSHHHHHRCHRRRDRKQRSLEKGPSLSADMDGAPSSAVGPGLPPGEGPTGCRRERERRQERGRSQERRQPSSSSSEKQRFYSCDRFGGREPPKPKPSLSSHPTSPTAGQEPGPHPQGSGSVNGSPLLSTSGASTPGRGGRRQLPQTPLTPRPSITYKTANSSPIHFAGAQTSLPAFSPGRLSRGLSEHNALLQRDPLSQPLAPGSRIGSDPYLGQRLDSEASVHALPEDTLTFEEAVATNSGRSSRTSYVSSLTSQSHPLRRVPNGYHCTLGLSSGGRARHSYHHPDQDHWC
T1 sequence (P54289 25-956 partner limits assumed): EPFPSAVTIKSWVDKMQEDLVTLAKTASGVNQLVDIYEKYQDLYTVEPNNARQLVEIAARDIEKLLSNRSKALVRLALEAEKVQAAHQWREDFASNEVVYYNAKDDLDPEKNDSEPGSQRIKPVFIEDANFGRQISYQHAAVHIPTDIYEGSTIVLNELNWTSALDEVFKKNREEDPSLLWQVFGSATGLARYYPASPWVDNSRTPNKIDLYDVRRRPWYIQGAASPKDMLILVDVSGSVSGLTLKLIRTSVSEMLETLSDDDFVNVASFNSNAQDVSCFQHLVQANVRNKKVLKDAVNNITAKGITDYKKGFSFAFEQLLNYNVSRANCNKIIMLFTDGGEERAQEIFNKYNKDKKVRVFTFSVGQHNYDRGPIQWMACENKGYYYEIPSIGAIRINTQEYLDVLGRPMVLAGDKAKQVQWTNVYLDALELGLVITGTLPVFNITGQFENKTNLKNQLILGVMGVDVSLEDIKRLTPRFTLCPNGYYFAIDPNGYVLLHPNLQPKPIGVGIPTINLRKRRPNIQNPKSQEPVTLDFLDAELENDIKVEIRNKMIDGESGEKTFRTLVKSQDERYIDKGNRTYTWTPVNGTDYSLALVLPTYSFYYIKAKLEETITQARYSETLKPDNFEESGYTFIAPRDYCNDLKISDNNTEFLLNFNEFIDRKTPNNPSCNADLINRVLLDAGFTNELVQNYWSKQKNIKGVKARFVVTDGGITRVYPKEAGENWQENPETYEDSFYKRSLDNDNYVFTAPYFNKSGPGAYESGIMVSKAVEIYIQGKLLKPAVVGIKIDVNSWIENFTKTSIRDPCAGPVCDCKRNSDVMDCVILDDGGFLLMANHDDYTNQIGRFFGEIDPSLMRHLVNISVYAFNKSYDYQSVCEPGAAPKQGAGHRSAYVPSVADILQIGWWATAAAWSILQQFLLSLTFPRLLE
T1 sequence (P54289 957-1103 partner limits assumed): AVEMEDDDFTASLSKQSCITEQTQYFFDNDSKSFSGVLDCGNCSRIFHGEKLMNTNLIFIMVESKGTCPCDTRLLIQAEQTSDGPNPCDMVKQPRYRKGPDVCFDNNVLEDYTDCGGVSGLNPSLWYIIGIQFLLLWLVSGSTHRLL
T1 sequence (P54284 whole entry partner): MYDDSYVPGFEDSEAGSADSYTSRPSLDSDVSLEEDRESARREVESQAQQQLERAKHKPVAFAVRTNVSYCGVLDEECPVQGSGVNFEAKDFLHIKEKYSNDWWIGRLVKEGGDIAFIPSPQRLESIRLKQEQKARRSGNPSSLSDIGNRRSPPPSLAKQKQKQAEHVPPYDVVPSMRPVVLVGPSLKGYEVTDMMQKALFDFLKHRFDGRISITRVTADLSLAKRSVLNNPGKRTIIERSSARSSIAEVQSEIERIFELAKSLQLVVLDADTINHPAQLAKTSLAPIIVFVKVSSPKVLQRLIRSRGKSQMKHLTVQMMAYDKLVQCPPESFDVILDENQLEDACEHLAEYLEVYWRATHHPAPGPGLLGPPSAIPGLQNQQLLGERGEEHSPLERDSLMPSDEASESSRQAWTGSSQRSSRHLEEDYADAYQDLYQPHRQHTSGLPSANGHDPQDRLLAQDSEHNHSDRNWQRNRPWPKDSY

By IC50 is commonly meant the midpoint of a concentration-inhibition curve. As for `O=C(CCc1ccc(F)cc1)NOC1CCN(S(=O)(=O)c2cccc(C(F)(F)F)c2)CC1` [Example 5, 3-(4-Fluorophenyl)-N-(1-(3-(trifluoromethyl)phenylsulfonyl)piperidin-4-yloxy)propanamide], the IC50 was 102 nM.

For the compound `N#Cc1cccc(C(=O)NOC2CCN(S(=O)(=O)c3cccc(C(F)(F)F)c3)CC2)c1` [Example 7, 3-Cyano-N-(1-(3-(trifluoromethyl)phenylsulfonyl)piperidin-4-yloxy)benzamide], the IC50 was determined as 575 nM.

In the case of `O=C(NOC1CCN(S(=O)(=O)c2cccc(C(F)(F)F)c2)CC1)C(c1ccccc1)c1ccccc1` [Example 9, 2,2-Diphenyl-N-(1-(3-(trifluoromethyl)phenylsulfonyl)piperidin-4-yloxy)acetamide], the IC50 stood at 218 nM.

Take `O=C(NO[C@H]1CCN(S(=O)(=O)c2cccc(C(F)(F)F)c2)C1)c1ccc(F)cc1` [Example 16, (S)-4-Fluoro-N-(1-(3-(trifluoromethyl)phenylsulfonyl)pyrrolidin-3-yloxy)benzamide]: the IC50 turned out to be 1220 nM.

In the case of `O=C(NCCOc1ccc(F)cc1)NOC1CCN(S(=O)(=O)c2cccc(C(F)(F)F)c2)CC1` [Example 31, 1-(2-(4-Fluorophenoxy)ethyl)-3-(1-(3-(trifluoromethyl)phenylsulfonyl)piperidin-4-yloxy)urea], the half-inhibitory concentration (IC50) was determined as 154 nM.

Turning to `CN(C(=O)NOC1CCN(S(=O)(=O)c2cccc(C(F)(F)F)c2)CC1)c1ccc(F)cc1` [Example 32, 1-(4-Fluorophenyl)-1-methyl-3-(1-(3-(trifluoromethyl)phenylsulfonyl)piperidin-4-yloxy)urea], the IC50 is 560 nM.

`O=C(NOC1CCN(S(=O)(=O)c2ccc(OC(F)(F)F)cc2)CC1)NC1CCC1` [Example 55, 1-Cyclobutyl-3-(1-(4-(trifluoromethoxy)phenylsulfonyl)piperidin-4-yloxy)urea]: the IC50 was 290 nM.

For the compound `O=C(NCCC(F)(F)F)NOC1CCN(S(=O)(=O)c2ccc(OC(F)(F)F)cc2)CC1` [Example 67, 1-(1-(4-(Trifluoromethoxy)phenylsulfonyl)piperidin-4-yloxy)-3-(3,3,3-trifluoropropyl)urea], the IC50 came out at 1490 nM.

As for `O=C(NO[C@H]1CCN(S(=O)(=O)c2cccc(C(F)(F)F)c2)C1)Nc1cc(C(F)(F)F)cc(C(F)(F)F)c1` [Example 86, (S)-1-(3,5-Bis(trifluoromethyl)phenyl)-3-(1-(3-(trifluoromethyl)phenylsulfonyl)pyrrolidin-3-yloxy)urea], the half-maximal inhibitory concentration (IC50) is 705 nM.

In the case of `O=C(NOC1CCN(C(c2ccc(F)cc2)c2ccc(F)cc2)CC1)Nc1ccc(F)cc1` [Example 106, 1-(1-(Bis(4-fluorophenyl)methyl)piperidin-4-yloxy)-3-(4-fluorophenyl)urea], the IC50 stood at 2580 nM.
